Our source for the EC50 and melting point values is patent publication US6964983B2, “Compounds that modulate PPAR activity and methods for their preparation” (Warner-Lambert Company, LLC, priority 2002, dated 2005).

The structures appear in SMILES notation. Bounds are passed on as bounds.

Data set [1] has as its target T1, hPPARβ (Homo sapiens, UniProt Q03181).
T1 sequence (Q03181 171-441 limits assumed): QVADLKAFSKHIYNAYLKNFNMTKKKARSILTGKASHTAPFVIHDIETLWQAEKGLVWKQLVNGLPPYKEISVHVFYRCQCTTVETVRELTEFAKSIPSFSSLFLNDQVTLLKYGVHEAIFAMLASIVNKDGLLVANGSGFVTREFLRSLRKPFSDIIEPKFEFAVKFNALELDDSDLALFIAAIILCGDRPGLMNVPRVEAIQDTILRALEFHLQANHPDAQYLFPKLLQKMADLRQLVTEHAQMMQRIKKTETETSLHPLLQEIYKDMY
Kind of data set: Transient transfection assay in HepG2 cells, Gal4-hPPARβ chimeric receptor, luciferase reporter. It counts as cell-based. To be noted: Hep G2-hBeta EC50, 24 hours incubation; read-out: EC50β nM (Group). As for the experimental part: (§1) 1. Test A. Transient Transfections Assay using the HepG2 Hepatoma Cell Line.
(§2) HepG2 cells were transiently transfected with an expression plasmids encoding hPPARα, hPPARβ or mPPARγ chimeric receptors and a reporter containing the yeast upstream activating sequence (UAS) upstream of the viral E1B promoter controlling a luciferase reporter gene. In addition, the plasmid pRSVβ-gal was used to control for transfection efficiency. HepG2 cells were grown in DMEM supplemented with 10% FBS and 1 μM non-essential amino acid. On the first day, cells were split into 100 mm dishes at 2.5×10^6/dish and incubated overnight at 37° C./5% CO2. On the second day the cells were transiently transfected with plasmid DNA encoding a chimeric receptor, the luciferase reporter gene; and β-gal. For each 100 mm dish, 15 μg of lucifease reporter (PG5E1b) DNA, 15 μg of Gal4-PPAR chimeric receptor DNA, and 1.5 μg of β-gal plasmid DNA were mixed with 1.4 ml of opti-MEM in the tube. 28 μl of LipoFectamine-2000 reagent was added to 1.4 ml of opti-MEM in the tube, and incubate for 5 min at RT. The diluted Lipofectamine-2000 reagent was combined with the DNA mixture, and incubate for 20 min at RT. After fresh medium was added to each 100 mm dish of cells, 2.8 ml of Lipofectamine2000-DNA mixture was added dropwise to the 100 mm dish containing 14 ml of medium, and incubate 37° C. overnight. On day three cells were trypsinized off the 100 mm dishes and re-plated on 96 well plates. Cells were plated at 2.5×10^4 cells per well in 150 μl of media and 50 μl of compound diluted by media was added. The test compound added were in the range from 50 μM to 50 pM. After addition of compounds, the plates were incubated at 37° C. for 24 hours. Subsequently cells were washed with once with 100 μl of PBS, lysed, and processed for measuring luciferase and β-gal activity using Dual-Light luciferase kit from Tropix ®, according to the manufacturer's recommendations, on an EG&G Bethold MicroLumat LB96P luminometer. EC50 values were obtained using the GraphPad Prism™ program.

Data set [2] concerns the target T2, hPPARα (Homo sapiens, UniProt Q07869).
T2 sequence (Q07869 200-468 limits assumed): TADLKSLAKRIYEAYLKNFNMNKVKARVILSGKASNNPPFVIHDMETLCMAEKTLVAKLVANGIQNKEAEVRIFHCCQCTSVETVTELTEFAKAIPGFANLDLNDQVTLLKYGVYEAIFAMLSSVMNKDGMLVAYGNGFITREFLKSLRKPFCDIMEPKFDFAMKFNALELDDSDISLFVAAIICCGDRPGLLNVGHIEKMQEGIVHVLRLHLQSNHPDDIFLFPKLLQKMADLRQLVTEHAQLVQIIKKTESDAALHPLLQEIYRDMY
The data set is described as follows: Transient transfection assay in HepG2 cells, Gal4-hPPARα chimeric receptor, luciferase reporter. The class given is cell-based. The conditions noted are these: Hep G2-hAlpha EC50, 24 hours incubation; read-out: EC50α nM (Group). As for the experimental part:
as §1, §2
(Reporter assays use an easily measured gene product as a stand-in for the process of interest.)

For the compound `COc1cc(OCC(=O)O)c(C)cc1SCc1ccc(-c2ccc(Cl)cc2Cl)cc1` [Example 7, [4-(2′,4′-Dichloro-biphenyl-4-ylmethylsulfanyl)-5-methoxy-2-methyl-phenoxy]-acetic acid], the EC50 in data set [1] and in data set [2] was less than 300 nM throughout. As to `COc1cc(OCC(=O)O)c(C)cc1SCc1ccc(-c2ccc(F)cc2)cc1` [Example 10, [4-(4′-Fluoro-biphenyl-4-ylmethylsulfanyl)-5-methoxy-2-methyl-phenoxy]-acetic acid], the EC50 in data set [1] was less than 300 nM; in data set [2] it was 300 to 500 nM. In the same order, the values of `COc1cc(OCC(=O)O)c(C)cc1SCc1ccc(-c2cccc(OC(F)(F)F)c2)cc1` [Example 11, [5-Methoxy-2-methyl-4-(3′-trifluoromethoxy-biphenyl-4-ylmethylsulfanyl)-phenoxy]-acetic acid] are less than 300 nM and 500 to 1000 nM.

Turning to `Cc1cc(SCc2ccc3c(c2)Cc2ccccc2-3)ccc1OCC(=O)O` [Example 17], the results for the EC50 in data set [1] and in data set [2] were 1000 to 2000 nM and 2000 to 5000 nM, respectively.

On to `COc1cc(OCC(=O)O)ccc1SCc1ccc(-c2ccc(C(F)(F)F)cc2)cc1` [Example 21, [3-Methoxy-4-(4′-trifluoromethyl-biphenyl-4-ylmethylsulfanyl)-phenoxy]-acetic acid], for which the EC50 in data set [1] and in data set [2] was less than 300 nM throughout. With `Cc1cc(SCc2ccc(-c3ccc(C(F)(F)F)cn3)cc2)ccc1OCC(=O)O` [Example 30, {2-Methyl-4-[4-(5-trifluoromethyl-pyridin-2-yl)-benzylsulfanyl]-phenoxy}-acetic acid], the EC50 in data set [1] and in data set [2] was 1000 to 2000 nM each time. Consider `COc1cc(OCC(=O)O)c(C)cc1SCc1cc(-c2ccc(Cl)cc2)on1` [Example 41, {4-[5-(4-Chloro-phenyl)-isoxazol-3-ylmethylsulfanyl]-5-methoxy-2-methyl-phenoxy}-acetic acid], for which the EC50 in data set [1] is less than 300 nM; in data set [2], 2000 to 5000 nM. As to `Cc1cc(SCc2cc(-c3ccc(C(F)(F)F)cc3)on2)ccc1OCC(=O)O` [Example 42, {2-Methyl-4-[5-(4-trifluoromethyl-phenyl)-isoxazol-3-ylmethylsulfanyl]-phenoxy}-acetic acid], the EC50 in data set [2] is 2000 to 5000 nM.

`O=C(O)COc1ccc(SCc2ccc(OCc3cc(Cl)ccc3Cl)cc2)c2c1CCC2` [Example 71, {7-[4-(2,5-Dichloro-benzyloxy)-benzylsulfanyl]-indan-4-yloxy}-acetic acid]: the melting point – broadly, the temperature, or range, at which the solid turns liquid – was in the range of 158 to 160 °C. Further, in data set [1], the EC50 was in the range of 500 to 1000 nM. In the same order, the values of `O=C(O)COc1ccc(SCc2ccc(OCc3ccc(Cl)c(Cl)c3)cc2)c2c1CCC2` [Example 72, {7-[4-(3,4-Dichloro-benzyloxy)-benzylsulfanyl]-indan-4-yloxy}-acetic acid] are 168 °C and 1000 to 2000 nM.

Compound `O=C(O)COc1ccc(SCc2ccc(OCc3ccc(OC(F)(F)F)cc3)cc2)c2c1CCC2` [Example 75, {7-[4-(4-Trifluoromethoxy-benzyloxy)-benzylsulfanyl]-indan-4-yloxy}-acetic acid] showed a melting point of 140 to 142 °C. Moreover, the EC50 in data set [1] fell in the range of 500 to 1000 nM. In the same order, the values of `O=C(O)COc1ccc(SCc2ccc(OCc3ccc(F)cc3C(F)(F)F)cc2)c2c1CCC2` [Example 76, {7-[4-(4-Fluoro-2-trifluoromethyl-benzyloxy)-benzylsulfanyl]-indan-4-yloxy}-acetic acid] are 125 to 127 °C and 1000 to 2000 nM. In the same order, the values of `O=C(O)COc1ccc(SCc2ccc(OCc3cc(Cl)cc(Cl)c3)cc2)c2c1CCC2` [Example 77, {7-[4-(3,5-Dichloro-benzyloxy)-benzylsulfanyl]-indan-4-yloxy}-acetic acid] are 134 to 135 °C and 300 to 500 nM.

As for `COc1ccc(CSc2ccc(OCC(=O)O)c3c2CCC3)cc1OCc1ccc(C(F)(F)F)cc1` [Example 78, {7-[4-Methoxy-3-(4-trifluoromethyl-benzyloxy)-benzylsulfanyl]-indan-4-yloxy}-acetic acid], the melting point was 150 to 151 °C. Also, the EC50 in data set [1] is 300 to 500 nM.

`O=C(O)COc1ccc(SCc2cccc(OCc3ccc(Cl)c(C(F)(F)F)c3)c2)c2c1CCC2` [Example 80, {7-[3-(4-Chloro-3-trifluoromethyl-benzyloxy)-benzylsulfanyl]-indan-4-yxoly}-acetic acid] registered a melting point of 121 to 122 °C. Moreover, the EC50 in data set [1] is 1000 to 2000 nM. In the same order, the values of `O=C(O)COc1ccc(SCc2ccc(OCc3cc(Cl)ccc3Cl)cc2)c2c1CCCO2` [Example 85, {8-[4-(2,5-Dichloro-benzyloxy)-benzylsulfanyl]-chroman-5-yloxy}-acetic acid] are 98 to 100 °C and 1000 to 2000 nM. On the same counts, the results for `O=C(O)COc1ccc(SCc2cc(-c3ccccc3Cl)on2)c2c1CCC2` [Example 87, {7-[5-(2-Chloro-phenyl)-isoxazol-3-ylmethylsulfanyl]-indan-4-yloxy}-acetic acid] are 161 to 162 °C and 2000 to 5000 nM.

As to `Cc1onc(-c2c(Cl)cccc2Cl)c1CSc1ccc(OCC(=O)O)c2c1CCC2` [Example 88, {7-[3-(2,6-Dichloro-phenyl)-5-methyl-isoxazol-4-ylmethylsulfanyl]-indan-4-yloxy}-acetic acid], the melting point is 151 to 152 °C. The EC50 in data set [1] is greater than 5000 nM.

`O=C(O)COc1ccc(SCc2cc(-c3ccc(C(F)(F)F)cc3)no2)c2c1CCC2` [Example 89, {7-[3-(4-Trifluoromethyl-phenyl)-isoxazol-5-ylmethylsulfanyl]-indan-4-yloxy}-acetic acid] returned a melting point of 166 to 168 °C. Also, in data set [1], the EC50 was in the range of 1000 to 2000 nM. On the same counts, the results for `O=C(O)COc1ccc(SCCc2ccc(-c3ccc(C(F)(F)F)cc3)cc2)c2c1CCC2` [Example 90, {7-[2-(4′-Trifluoromethyl-biphenyl-4-yl)-ethylsulfanyl]-indan-4-yloxy}-acetic acid] are 170 to 172 °C and 500 to 1000 nM.

Turning to `O=C(O)COc1ccc(CCc2ccc(-c3ccc(C(F)(F)F)cc3)cc2)c2c1CCC2` [Example 91, {7-[2-(4′-Trifluoromethyl-biphenyl-4-yl)-ethyl]-indan-4-yloxy}-acetic acid], the melting point fell in the range of 188 to 190 °C. For the same compound, in data set [1], the EC50 fell in the range of 2000 to 5000 nM. Regarding `O=C(O)COc1ccc(SCc2ccc(-c3ccc(C(F)(F)F)cc3)cc2)c2c1CCCO2` [Example 93, [8-(4′-Trifluoromethyl-biphenyl-4-ylmethylsulfanyl)-chroman-5-yloxy]-acetic acid], the melting point is 170 to 172 °C. Besides, in data set [1], the EC50 fell in the range of 500 to 1000 nM. `O=C(O)COc1ccc(SCc2cc(-c3ccc(Cl)cc3)no2)c2c1CCC2` [Example 98, {7-[3-(4-Chloro-phenyl)-isoxazol-5-ylmethylsulfanyl]-indan-4-yloxy}-acetic acid] returned a melting point of 158 to 160 °C. Besides, in data set [1], the EC50 lay in the range of 2000 to 5000 nM. In the same order, the values of `Cc1cc(SCc2cc(-c3ccc(C(F)(F)F)cc3)on2)c(Cl)cc1OCC(=O)O` [Example 99, {5-Chloro-2-methyl-4-[5-(4-trifluoromethyl-phenyl)-isoxazol-3-ylmethylsulfanyl]-phenoxy}-acetic acid] are 180 to 182 °C and 300 to 500 nM. On the same counts, the results for `CCCCc1cc(SCc2ccc(-c3ccc(C(F)(F)F)cc3)cc2)ccc1OCC(=O)O` [Example 100, 2-[2-butyl-4-({4-[4-(trifluoromethyl)phenyl]phenyl}methylthio)phenoxy]acetic acid] are 155 to 157 °C and 500 to 1000 nM.
